This note sets out measurements from PMC10421158, “In Vitro and In Silico Analysis of the Anticancer Effects of Eurycomanone and Eurycomalactone from Eurycoma longifolia” (Plants, 2023).

Format in all cases: cell-based
Test [1] relates to cardiomyocyte (H9C2) normal cell line. Briefly: Sulforhodamine B (SRB) cell viability assay, H9C2. As to conditions: read-out: IC50 H9C2. The source says: (§1) The cancer cell lines used for this study were ovarian cancer (A2780), cervical cancer (HeLa) and colorectal cancer (HT29) as well as normal cardiomyocyte (H9C2) and liver (WRL-68) cell lines. All cell lines were purchased from American Type Culture Collections except A2780, which were purchased from the European Collection of Authenticated Cell Cultures. These cells were subcultured in Dulbecco’s Modified Eagle’s medium (Sigma-Aldrich, St. Louis, MO, USA) and supplemented with 10% fetal bovine serum (Sigma, USA), 1% penicillin–streptomycin (Sigma, USA), 1% amphotericin B (Sigma, USA) and 1% gentamicin (Sigma, USA). The cells were seeded in each well of 96 well plates and incubated in a humidified incubator at 37 °C and 5% carbon dioxide in air for 24 h. Each cell line was then treated with eurycomanone and eurycomalactone at five different concentrations (0.08, 0.4, 2, 10 and 50 µM) in triplicate. Cisplatin and methotrexate (Sigma, USA), known chemo-drugs, were also treated on these cell lines at five different concentrations (0.08, 0.4, 2, 10, 50 µM for cisplatin, 0.0008, 0.004, 0.02, 0.1, 0.5 µM for methotrexate) for the comparative studies. The treated cells were then incubated in the same incubator with the mentioned conditions for 72 h. The experiment was repeated at least three times.
(§2) Sulforhodamine B (SRB) assay had been performed after the treated cells were incubated for 72 h. Briefly, 50 μL of ice cold tricholoroacetic acid (TCA) was added to each well and allowed to stand for 30 min at room temperature, followed by rinsing each well with tap water. Then, 100 μL of 0.4% SRB was added to each well to stain living cells for 30 min followed by a rinse with 1% acetic acid. Finally, 100 μL of Tris buffer was added to each well and the optical density (OD) of the treated and nontreated cells were read at 492 nm with a Magellan V.4 microtiter plate reader (Tecan, Salzburg, Austria). The percentage of cell viability was calculated based on (OD492nm of the treated cells/OD492nm of the nontreated cells) × 100. The IC50 values were determined from the dose–response curve of percentage of cell viability versus the concentration of the compounds (μM). Cells viability assay for each treatment was performed in triplicate in at least three independent experiments, and the IC50 values are given as the mean ± SEM.

In test [2] the test system is ovarian (A2780) cancer cell line. Description: Sulforhodamine B (SRB) cell viability assay, A2780. As to conditions: read-out: IC50 A2780.
Source text: as §1
as §2, with “Briefly,” for “Sulforhodamine B (SRB) assay had been performed after the treated cells were incubated for 72 h. Briefly,”

In test [3] the test system is liver (WRL-68) normal cell line. Briefly: Sulforhodamine B (SRB) cell viability assay, WRL-68. As to conditions: read-out: IC50 WRL-68.
Source text: as §1, §2

In test [4] the test system is cervical (HeLa) cancer cell line. Description: Sulforhodamine B (SRB) cell viability assay, HeLa. The following applies: 72 h, read-out: IC50 HeLa.
Source text: as §1, §2

For test [5], the system named is colorectal (HT29) cancer cell line. Briefly: Sulforhodamine B (SRB) cell viability assay, HT-29. The following applies: read-out: IC50 HT-29.
Source text: as §1, §2

Test [6] deals with ovarian (A2780), cervical (HeLa) and colorectal (HT29) cancer cells. Briefly: SRB assay, range over the three cancer cell lines. As to conditions: 72 h, read-out: range of IC50 values in cancer cell lines.
Source text: as §1
as §2, with “Briefly,” for “Sulforhodamine B (SRB) assay had been performed after the treated cells were incubated for 72 h. Briefly,”, “Cells viability assay for each treatment was performed in triplicate in at least three independent experiments, and the IC50 values are given as the mean ± SEM.” left out
On the technique in general: Sulforhodamine B stains cellular protein and so reports cell mass.

For the next test, the system named is HT-29 cells. Description: Apoptotic Hoechst 33342 assay, HT-29. As to the method:
(§3) A2780, HT-29 and HeLa cancer cell lines were chosen for evaluating the apoptotic effects of eurycomanone and eurycomalactone. The morphological changes of cells undergoing apoptosis were visualised under a fluoresecence microscope after performing the Hoechst 33342 assay. Briefly, 10 × 10^4 cells were seeded for 500 µL/well of four Labtek® Chamber Slides (Thermo Fisher Scientific, Waltham, MA, USA) and incubated in 5% carbon dioxide in air for 24 h for the cells’ attachment. The cells were treated with concentrations of IC50/5, IC50 and IC50 × 5 values of eurycomanone and eurycomalactone in different wells and further incubated for 6, 24 and 48 h, respectively. Nontreated cells were also included in the experimental design, which acted as a negative control in this study. Following this, the media from each well were discarded and cells were fixed with 4% (w/v) paraformaldehyde for 30 min. The cells were then washed with cold phosphate buffer solution (PBS) prior to staining using Hoechst 33342, according to the method of [26]. Quantitative assessment of apoptotic cells were determined by counting apoptotic nuclei from five randomly chosen areas corroborating visual impression based on the morphology shown in Figure 3 and Figure 4. The apoptotic index (number of apoptotic nuclei per total nuclei × 100) was expressed as a percentage of the mean ± S.E.M and analysed using ANOVA followed by Tukey’s multiple comparison test.

Another test relates to HeLa cells. Briefly: Apoptotic Hoechst 33342 assay, HeLa. As to the method:
as §3

Another test deals with A2780 cells. Description: Apoptotic Hoechst 33342 assay, A2780. As to the method: as §3
[7] abbreviates: SRB, 72 h, normal cell line, mean ± SEM (n = 9).

The IC50 is the concentration needed to halve the response being measured.

Structures are written as SMILES. Like-named read-outs stand apart in the source and are kept apart here.

Consider `N.N.[Cl][Pt][Cl]` [Cisplatin, reference compound], for which the IC50 in [1] (setting [7]) was 14.1 ± 1.14 µM; in test [2] (SRB, 72 h, mean ± SEM (n = 9)), 1.77 ± 0.018 µM; in [3] (setting [7]) it was 1.13 ± 0.098 µM; in [4] (SRB, mean ± SEM (n = 9)), 1.54 ± 0.12 µM; in test [5] (SRB, 72 h, mean ± SEM (n = 9)), 1.38 ± 0.037 µM.

As for `CC1=CC(=O)[C@@H](O)[C@@]2(C)[C@H]1CC(=O)[C@@]1(C)[C@H]3C(=O)O[C@H]([C@@H]3C)[C@H](O)[C@@H]12` [Eurycomalactone], the IC50 in test [1] (Rattus norvegicus, H9c2, 72 h) is 7 ± 0.43 µM; in test [2] (Homo sapiens, A2780, 72 h), 2.46 ± 0.081 µM; in [3] (Homo sapiens, WRL68, 72 h), 2.71 ± 0.042 µM; in test [4] (Homo sapiens, HeLa), 1.6 ± 0.12 µM; in test [5] (Homo sapiens, HT-29, 72 h), 2.21 ± 0.049 µM; in test [6], 1.6 to 2.46 µM. In addition, the Apoptotic index in the test on HT-29 cells (HT-29, IC50, 6 h) was 4.51 ± 0.23 ^b/x %; in the test on HT-29 cells (HT-29, IC50, 24 h), 12.41 ± 0.77 ^ab/xy %; in the test on HT-29 cells (HT-29, IC50, 48 h), 14.28 ± 0.84 ^ab/xz,yz %; in the test with HT-29 cells (HT-29, IC50/5, 6 h), 3.79 ± 0.45 ^a/x %; in the test with HT-29 cells (HT-29, IC50/5, 24 h) it was 7.71 ± 0.51 ^a/xy %; in the test on HT-29 cells (HT-29, IC50/5, 48 h), 8.86 ± 0.68 ^a/xz %. Further, the Apoptotic index with HT-29 cells (HT-29, IC50 × 5, 6 h) is on record as 6.52 ± 1.22 ^ac,bc/x %; in the test with HT-29 cells (HT-29, IC50 × 5, 24 h), 20.21 ± 1.52 ^ac,bc/xy %; in the test with HT-29 cells (HT-29, IC50 × 5, 48 h), 100.00 ± 0.00 ^ac,bc/xz,yz %; in the test on HeLa cells (IC50, 6 h) it was 17.67 ± 0.77 ^ab/x %; in the test on HeLa cells (IC50, 24 h), 32.00 ± 1.57 ^ab/xy %; in the test with HeLa cells (IC50, 48 h) it was 36.71 ± 1.19 ^ab/xz,yz %. Also, the Apoptotic index with HeLa cells (IC50/5, 6 h) was 5.45 ± 0.23 ^a/x %; in the test on HeLa cells (IC50/5, 24 h), 8.94 ± 0.21 ^a/xy %; in the test on HeLa cells (IC50/5, 48 h), 14.78 ± 0.12 ^a/xz,yz %; in the test with HeLa cells (IC50 × 5, 6 h), 31.87 ± 2.19 ^ac,bc/x %; with HeLa cells (IC50 × 5, 24 h), 62.20 ± 1.35 ^ac,bc/xy %; in the test on HeLa cells (IC50 × 5, 48 h) it was 100.00 ± 0.00 ^ac,bc/xz,yz %. For the same molecule, the Apoptotic index in the test on A2780 cells (A2780, IC50, 6 h) is on record as 4.26 ± 0.64 ^b/x %; in the test with A2780 cells (A2780, IC50, 24 h), 6.29 ± 0.21 ^ab/y %; in the test with A2780 cells (A2780, IC50, 48 h), 7.93 ± 2.28 ^b/xz %; in the test with A2780 cells (A2780, IC50/5, 6 h) it was 3.84 ± 0.10 ^a/x %; with A2780 cells (A2780, IC50/5, 24 h), 4.12 ± 0.16 ^a/y %; with A2780 cells (A2780, IC50/5, 48 h), 5.16 ± 0.065 ^a/xz,yz %. In addition, the Apoptotic index was 15.81 ± 0.38 ^ac,bc/x % with A2780 cells (A2780, IC50 × 5, 6 h); “Cells died and completely detached ^ac,bc/xy” in the test on A2780 cells (A2780, IC50 × 5, 24 h); “Cells died and completely detached ^ac,bc/xz” in the test with A2780 cells (A2780, IC50 × 5, 48 h).

For the molecule `CN(Cc1cnc2nc(N)nc(N)c2n1)c1ccc(C(=O)N[C@@H](CCC(=O)O)C(=O)O)cc1` [Methotrexate, reference compound], the IC50 in test [1] (Rattus norvegicus, H9c2, SRB, 72 h, normal cell line, mean ± SEM (n = 9)) was over 50 µM; in test [2] (Homo sapiens, A2780, SRB, 72 h, mean ± SEM (n = 9)), 0.016 ± 0.0005 µM; in test [3] (Homo sapiens, WRL68, SRB, 72 h, normal cell line, mean ± SEM (n = 9)), 0.015 ± 0.00041 µM; in [4] (Homo sapiens, HeLa, SRB, mean ± SEM (n = 9)) it was 0.094 ± 0.0043 µM; in test [5] (Homo sapiens, HT-29, SRB, 72 h, mean ± SEM (n = 9)), 0.059 ± 0.001 µM; in test [6] (range over A2780, HeLa, HT29, SRB) it was 0.016 to 0.094 µM.
